Measurements: ChEMBL document CHEMBL1201862, “PubChem BioAssay data set” (2004)
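Step 1: Grow cells in 96-well plates. Step 2: Expose to compound for 48 hours at 5 concentrations. Step 3: Interpolate endpoints linearly; if unreached, use highest concentration. The concentration for 50% growth inhibition is given as GI50.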 Activity calls are given as the source filed them. Cut-off read from the data, not from the text of the source: active = GI50 up to about 1.1 µM and inactive = higher.

Legend:
Experiment in all cases: inhibition of tumour cell growth, NCI panel, 48 h
K562 = system: K562
NCI/ADR-RES = system: NCI/ADR-RES
CAKI-1 = system: CAKI-1
T47D = system: T47D
NCI-H460 = system: NCI-H460
SF-539 = system: SF-539
LOX IMVI = system: LOX IMVI
A498 = system: A498
Malme-3M = system: Malme-3M
SNB-75 = system: SNB-75
SK-OV-3 = system: SK-OV-3
SF-295 = system: SF-295
MDA-MB-231 = system: MDA-MB-231
SK-MEL-2 = system: SK-MEL-2
HOP-62 = system: HOP-62
EKVX = system: EKVX
CCRF-CEM = system: CCRF-CEM
HL-60 = system: HL-60
SR = system: SR
Hs-578T = system: Hs-578T

Measured: GI50

Brc1ccc2c(c1)-c1nc3nc4c(cc3cc1CC2)CCc1ccc(Br)cc1-4
inactive: K562 > 100 µM | NCI/ADR-RES > 100 µM | CAKI-1 > 100 µM | T47D > 100 µM | NCI-H460 > 100 µM | SF-539 > 100 µM | LOX IMVI > 100 µM | A498 > 100 µM | Malme-3M > 100 µM | SNB-75 > 100 µM | SK-OV-3 > 100 µM | SF-295 > 100 µM | MDA-MB-231 > 100 µM | SK-MEL-2 > 100 µM | HOP-62 > 100 µM | EKVX > 100 µM

COc1cc(O)c2c(=O)cc(C3(OC(C)=O)C=CC(OC4OC(CO)C(O)C(O)C4O)C=C3)oc2c1 (stereo not drawn)
inactive: K562 > 100 µM | NCI/ADR-RES > 100 µM | CCRF-CEM > 100 µM | CAKI-1 > 100 µM | T47D > 100 µM | NCI-H460 > 100 µM | SF-539 > 100 µM | LOX IMVI > 100 µM | A498 > 100 µM | Malme-3M > 100 µM | SNB-75 > 100 µM | SK-OV-3 > 100 µM | SF-295 > 100 µM | MDA-MB-231 > 100 µM | HL-60 > 100 µM | SR > 100 µM | SK-MEL-2 > 100 µM | HOP-62 > 100 µM | EKVX > 100 µM

CCCCC(C(=O)NCCNC(=O)CCC(=O)N(C)O)C(=O)NCCNC(=O)CCC(=O)N(C)O
inactive: K562 > 100 µM | NCI/ADR-RES > 100 µM | CCRF-CEM > 100 µM | CAKI-1 > 100 µM | T47D > 100 µM | NCI-H460 > 100 µM | SF-539 > 100 µM | LOX IMVI > 100 µM | A498 > 100 µM | Malme-3M > 100 µM | SNB-75 > 100 µM | SK-OV-3 > 100 µM | SF-295 > 100 µM | MDA-MB-231 > 100 µM | HL-60 > 100 µM | SR > 100 µM | SK-MEL-2 > 100 µM | HOP-62 > 100 µM | EKVX > 100 µM

O=C(O)c1cc(CCc2ccc(O)c(O)c2)ccc1O
inactive: K562 21.3 µM | NCI/ADR-RES > 100 µM | CCRF-CEM > 100 µM | CAKI-1 > 100 µM | T47D > 100 µM | NCI-H460 > 100 µM | SF-539 > 100 µM | A498 > 100 µM | Malme-3M > 100 µM | SNB-75 > 100 µM | SK-OV-3 > 100 µM | SF-295 > 100 µM | Hs-578T > 100 µM | HL-60 23.2 µM | SR 24.4 µM | SK-MEL-2 > 100 µM | HOP-62 > 100 µM

O=[N+]([O-])/C(C(Cl)=C(Cl)Cl)=C(/Nc1cccc2cccnc12)n1nnc2ccccc21
inactive: K562 6.41 µM | NCI/ADR-RES 21.8 µM | CCRF-CEM 2.88 µM | CAKI-1 13.5 µM | T47D 19 µM | NCI-H460 31.3 µM | SF-539 13.4 µM | Malme-3M 6.85 µM | SNB-75 19.4 µM | SK-OV-3 15.9 µM | SF-295 17.9 µM | Hs-578T 11.9 µM | SK-MEL-2 15.3 µM | HOP-62 19.2 µM | EKVX 24.4 µM

COC(=O)Cc1c([C@@H]2Nc3ccccc3[C@H]2CC(=O)OC)[nH]c2ccccc12
inactive: K562 11 µM | NCI/ADR-RES 26.9 µM | CCRF-CEM 20.7 µM | CAKI-1 47.2 µM | NCI-H460 21.1 µM | SF-539 20.5 µM | LOX IMVI 21.6 µM | A498 34.7 µM | SNB-75 36.9 µM | SK-OV-3 52.4 µM | SF-295 22.8 µM | MDA-MB-231 18.5 µM | Hs-578T 41.3 µM | SR 8.02 µM | SK-MEL-2 17.7 µM | HOP-62 26.9 µM | EKVX 43 µM

Oc1ccc(Cl)cc1C1=NC(NCNC2=NC(c3ccccc3)CC(c3cc(Cl)ccc3O)=N2)=NC(c2ccccc2)C1 (stereo not drawn)
inactive: K562 39 µM | NCI/ADR-RES 82.4 µM | CCRF-CEM 61 µM | CAKI-1 94.2 µM | NCI-H460 87.1 µM | SF-539 > 100 µM | LOX IMVI > 100 µM | A498 > 100 µM | SNB-75 > 100 µM | SK-OV-3 > 100 µM | SF-295 79.1 µM | MDA-MB-231 > 100 µM | HL-60 > 100 µM | SR 24.9 µM | SK-MEL-2 > 100 µM | HOP-62 > 100 µM | EKVX > 100 µM

COC1CC(OC2CCC3(C)C(=CCC4C3C(OC(C)=O)C(OC(=O)CC(C)C)C3(C)C(C(C)=O)CCC43O)C2)OC(C)C1OC1CC(OC)C(OC2CC(OC)C(OC3OC(C)C(O)C(OC)C3O)C(C)O2)C(C)O1 (stereo not drawn)
inactive: K562 36.6 µM | CCRF-CEM 22.6 µM | CAKI-1 44 µM | T47D 38.2 µM | NCI-H460 28.7 µM | SF-539 21.9 µM | LOX IMVI 20.2 µM | A498 > 100 µM | Malme-3M 43 µM | SNB-75 24.4 µM | SK-OV-3 51.1 µM | SF-295 33 µM | MDA-MB-231 26.5 µM | Hs-578T 49.8 µM | HL-60 14.9 µM | SR 31.5 µM | SK-MEL-2 24.7 µM | HOP-62 > 100 µM | EKVX 34.8 µM

C=C1CCC2C(C)(CO)C(O)CCC2(C)C1CC(O)C1=CCOC1=O (stereo not drawn)
inactive: K562 34.1 µM | CCRF-CEM 22.9 µM | CAKI-1 78 µM | NCI-H460 49.9 µM | SF-539 24.3 µM | LOX IMVI 33.5 µM | A498 > 100 µM | Malme-3M > 100 µM | SNB-75 46.9 µM | SK-OV-3 51.5 µM | SF-295 46.2 µM | HL-60 26.9 µM | SR 18 µM | SK-MEL-2 53.5 µM | HOP-62 > 100 µM | EKVX 96.2 µM

CC(=O)Oc1cc2c(n(C)c1=O)CCC2
inactive: K562 > 100 µM | NCI/ADR-RES 35.5 µM | CCRF-CEM > 100 µM | CAKI-1 > 100 µM | NCI-H460 > 100 µM | SF-539 > 100 µM | LOX IMVI 96.4 µM | A498 > 100 µM | Malme-3M > 100 µM | SNB-75 > 100 µM | SK-OV-3 > 100 µM | SF-295 > 100 µM | MDA-MB-231 > 100 µM | HL-60 81.5 µM | SK-MEL-2 > 100 µM | HOP-62 > 100 µM | EKVX > 100 µM

O=C(CCC(=O)Nc1ccc(Cl)c(Cl)c1)Cc1nc2ccccc2o1
inactive: K562 > 100 µM | CCRF-CEM > 100 µM | CAKI-1 > 100 µM | NCI-H460 > 100 µM | SF-539 > 100 µM | LOX IMVI > 100 µM | A498 > 100 µM | Malme-3M > 100 µM | SNB-75 > 100 µM | SK-OV-3 > 100 µM | SF-295 > 100 µM | HL-60 > 100 µM | SR > 100 µM | SK-MEL-2 > 100 µM | HOP-62 > 100 µM | EKVX 67.3 µM

COc1ccc(-c2c(C(=O)Nc3ccccc3)c(-c3ccccc3)n(C3OC(CO)C(O)C(O)C3O)c(=S)c2C#N)cc1 (stereo not drawn)
inactive: K562 > 100 µM | NCI/ADR-RES > 100 µM | CCRF-CEM > 100 µM | CAKI-1 > 100 µM | NCI-H460 > 100 µM | LOX IMVI > 100 µM | A498 > 100 µM | Malme-3M > 100 µM | SF-295 > 100 µM | Hs-578T > 100 µM | HL-60 > 100 µM | SR > 100 µM | HOP-62 > 100 µM | EKVX > 100 µM

CC(=O)CC1=C(OC(C)C)C2(OCCO2)C1O (stereo not drawn)
inactive: CCRF-CEM > 100 µM | CAKI-1 > 100 µM | T47D > 100 µM | NCI-H460 > 100 µM | SF-539 > 100 µM | LOX IMVI > 100 µM | A498 > 100 µM | Malme-3M > 100 µM | SNB-75 > 100 µM | SK-OV-3 > 100 µM | SF-295 > 100 µM | MDA-MB-231 > 100 µM | Hs-578T > 100 µM | HL-60 > 100 µM | SK-MEL-2 > 100 µM | HOP-62 > 100 µM | EKVX > 100 µM

CCOC(=O)NN(C(=O)OCC)C(=C(C1=CCCCC1)N1CCOCC1)N(NC(=O)OCC)C(=O)OCC
inactive: K562 > 100 µM | NCI/ADR-RES > 100 µM | CAKI-1 > 100 µM | T47D > 100 µM | NCI-H460 > 100 µM | LOX IMVI > 100 µM | A498 > 100 µM | Malme-3M > 100 µM | SNB-75 > 100 µM | SK-OV-3 > 100 µM | SF-295 > 100 µM | MDA-MB-231 > 100 µM | HL-60 > 100 µM | SR > 100 µM | HOP-62 > 100 µM | EKVX > 100 µM

NC(Cc1ccccc1)c1nccs1 (stereo not drawn)
inactive: K562 > 100 µM | NCI/ADR-RES > 100 µM | CCRF-CEM > 100 µM | CAKI-1 > 100 µM | SF-539 > 100 µM | LOX IMVI > 100 µM | A498 > 100 µM | Malme-3M > 100 µM | SNB-75 > 100 µM | SK-OV-3 > 100 µM | SF-295 > 100 µM | MDA-MB-231 > 100 µM | Hs-578T > 100 µM | SR > 100 µM | SK-MEL-2 > 100 µM | HOP-62 > 100 µM | EKVX > 100 µM

C=C(c1ccccc1)C1(O)CCCCC1N (stereo not drawn)
inactive: K562 > 100 µM | CCRF-CEM 33.9 µM | CAKI-1 > 43.2 µM | NCI-H460 > 100 µM | SF-539 > 100 µM | LOX IMVI > 100 µM | A498 > 100 µM | Malme-3M > 100 µM | SNB-75 > 85.7 µM | SK-OV-3 > 100 µM | SF-295 > 100 µM | HL-60 16.6 µM | SR 30.3 µM | SK-MEL-2 > 100 µM | HOP-62 > 100 µM | EKVX > 100 µM
